Measurements: the Kinase Knowledgebase extract (Sharma et al. 2016)

Columns and labels:
PIK3CD (Human) [1] = target: PIK3CD (Human) (UniProt O00329); test: Enzyme Assay
PIK3CA (human) = PIK3CA (human) (UniProt P42336); test: Enzyme Assay
PIK3CB (Human) = PIK3CB (Human) (UniProt P42338); test: Enzyme Assay
PIK3CG (human) = PIK3CG (human) (UniProt P48736); test: Enzyme Assay
PIK3CD (Human) [2] = target: PIK3CD (Human) (UniProt O00329); test: Cell-Based Assay; details: b cells

Sequence of PIK3CA (human) (P42336 whole entry, looked up): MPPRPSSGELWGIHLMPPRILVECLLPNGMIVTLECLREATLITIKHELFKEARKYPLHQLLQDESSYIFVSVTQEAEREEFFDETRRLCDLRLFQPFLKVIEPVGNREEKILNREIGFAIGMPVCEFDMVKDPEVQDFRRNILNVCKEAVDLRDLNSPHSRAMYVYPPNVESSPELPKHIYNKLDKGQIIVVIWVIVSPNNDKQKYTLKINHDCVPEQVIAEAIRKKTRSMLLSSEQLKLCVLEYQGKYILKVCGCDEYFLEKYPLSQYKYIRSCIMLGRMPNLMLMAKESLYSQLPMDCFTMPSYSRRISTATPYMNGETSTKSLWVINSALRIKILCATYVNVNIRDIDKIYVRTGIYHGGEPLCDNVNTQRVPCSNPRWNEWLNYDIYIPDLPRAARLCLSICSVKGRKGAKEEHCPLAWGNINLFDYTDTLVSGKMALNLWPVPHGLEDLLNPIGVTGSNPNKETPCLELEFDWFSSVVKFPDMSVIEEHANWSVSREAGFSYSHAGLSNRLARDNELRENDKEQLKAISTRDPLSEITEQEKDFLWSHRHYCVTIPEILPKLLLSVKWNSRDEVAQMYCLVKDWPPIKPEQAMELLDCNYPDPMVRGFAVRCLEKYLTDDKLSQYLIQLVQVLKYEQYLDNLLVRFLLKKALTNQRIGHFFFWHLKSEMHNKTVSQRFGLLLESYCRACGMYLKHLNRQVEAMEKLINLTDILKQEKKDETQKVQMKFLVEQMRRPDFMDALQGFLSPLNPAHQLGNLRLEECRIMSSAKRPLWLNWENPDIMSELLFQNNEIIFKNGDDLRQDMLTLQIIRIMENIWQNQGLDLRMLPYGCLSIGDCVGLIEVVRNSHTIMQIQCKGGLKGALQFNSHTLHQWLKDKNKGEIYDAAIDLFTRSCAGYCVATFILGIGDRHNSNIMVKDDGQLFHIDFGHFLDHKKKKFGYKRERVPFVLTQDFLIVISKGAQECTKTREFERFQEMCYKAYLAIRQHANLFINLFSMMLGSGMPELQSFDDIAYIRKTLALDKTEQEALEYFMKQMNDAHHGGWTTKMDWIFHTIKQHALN
Sequence of PIK3CG (human) (P48736 whole entry, looked up): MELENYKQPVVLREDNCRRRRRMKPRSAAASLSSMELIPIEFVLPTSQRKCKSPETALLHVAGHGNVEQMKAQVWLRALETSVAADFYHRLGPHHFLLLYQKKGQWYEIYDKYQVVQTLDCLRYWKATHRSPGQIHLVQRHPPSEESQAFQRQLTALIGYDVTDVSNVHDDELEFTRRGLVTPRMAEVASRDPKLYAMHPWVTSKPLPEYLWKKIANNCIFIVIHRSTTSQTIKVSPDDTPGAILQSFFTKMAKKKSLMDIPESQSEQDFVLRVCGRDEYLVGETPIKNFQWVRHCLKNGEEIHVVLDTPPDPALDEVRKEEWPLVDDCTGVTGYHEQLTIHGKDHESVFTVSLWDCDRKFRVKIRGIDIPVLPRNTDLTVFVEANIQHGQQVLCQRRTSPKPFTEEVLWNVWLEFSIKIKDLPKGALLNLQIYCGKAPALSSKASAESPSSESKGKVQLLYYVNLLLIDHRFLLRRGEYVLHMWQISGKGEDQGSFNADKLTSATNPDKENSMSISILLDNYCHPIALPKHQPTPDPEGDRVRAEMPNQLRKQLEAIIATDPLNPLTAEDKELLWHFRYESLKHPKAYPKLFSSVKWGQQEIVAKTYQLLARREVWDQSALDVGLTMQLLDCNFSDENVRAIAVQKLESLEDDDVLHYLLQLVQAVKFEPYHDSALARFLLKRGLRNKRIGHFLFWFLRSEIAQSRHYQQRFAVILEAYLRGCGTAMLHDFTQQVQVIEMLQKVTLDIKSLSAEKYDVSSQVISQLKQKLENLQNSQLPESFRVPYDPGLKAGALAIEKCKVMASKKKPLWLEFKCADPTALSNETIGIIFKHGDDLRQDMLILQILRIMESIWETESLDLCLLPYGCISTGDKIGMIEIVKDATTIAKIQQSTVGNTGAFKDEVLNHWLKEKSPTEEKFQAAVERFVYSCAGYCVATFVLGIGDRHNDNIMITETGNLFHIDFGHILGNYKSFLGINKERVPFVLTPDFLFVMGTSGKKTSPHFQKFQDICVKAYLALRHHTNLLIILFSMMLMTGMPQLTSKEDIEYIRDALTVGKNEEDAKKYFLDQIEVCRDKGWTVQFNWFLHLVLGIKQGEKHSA
Sequence of PIK3CD (Human) (O00329 whole entry, looked up): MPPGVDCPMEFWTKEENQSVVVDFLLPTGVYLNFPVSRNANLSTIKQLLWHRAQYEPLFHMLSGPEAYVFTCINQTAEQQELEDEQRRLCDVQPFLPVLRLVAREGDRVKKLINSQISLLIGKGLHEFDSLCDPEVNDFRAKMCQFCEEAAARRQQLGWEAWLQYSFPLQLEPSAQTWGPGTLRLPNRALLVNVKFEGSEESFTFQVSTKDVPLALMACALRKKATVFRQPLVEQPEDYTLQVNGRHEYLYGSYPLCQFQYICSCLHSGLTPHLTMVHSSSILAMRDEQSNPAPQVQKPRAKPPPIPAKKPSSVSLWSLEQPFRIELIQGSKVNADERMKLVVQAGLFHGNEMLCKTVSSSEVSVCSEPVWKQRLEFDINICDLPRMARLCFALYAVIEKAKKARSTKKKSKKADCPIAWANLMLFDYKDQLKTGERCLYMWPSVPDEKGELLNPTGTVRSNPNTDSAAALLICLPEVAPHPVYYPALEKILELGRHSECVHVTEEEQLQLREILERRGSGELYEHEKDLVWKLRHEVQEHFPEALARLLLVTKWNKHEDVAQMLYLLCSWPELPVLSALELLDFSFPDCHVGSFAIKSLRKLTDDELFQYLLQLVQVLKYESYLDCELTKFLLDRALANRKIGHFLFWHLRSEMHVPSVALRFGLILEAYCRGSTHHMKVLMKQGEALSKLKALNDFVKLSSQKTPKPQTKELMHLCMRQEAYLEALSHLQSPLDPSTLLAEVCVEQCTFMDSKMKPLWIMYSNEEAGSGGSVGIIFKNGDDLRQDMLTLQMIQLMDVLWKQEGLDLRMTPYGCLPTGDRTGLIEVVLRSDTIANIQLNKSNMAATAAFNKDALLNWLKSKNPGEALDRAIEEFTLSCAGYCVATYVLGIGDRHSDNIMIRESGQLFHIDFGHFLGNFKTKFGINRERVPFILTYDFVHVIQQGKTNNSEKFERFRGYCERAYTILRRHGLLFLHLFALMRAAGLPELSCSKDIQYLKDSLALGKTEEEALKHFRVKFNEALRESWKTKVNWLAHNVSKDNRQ
Sequence of PIK3CB (Human) (P42338 whole entry, looked up): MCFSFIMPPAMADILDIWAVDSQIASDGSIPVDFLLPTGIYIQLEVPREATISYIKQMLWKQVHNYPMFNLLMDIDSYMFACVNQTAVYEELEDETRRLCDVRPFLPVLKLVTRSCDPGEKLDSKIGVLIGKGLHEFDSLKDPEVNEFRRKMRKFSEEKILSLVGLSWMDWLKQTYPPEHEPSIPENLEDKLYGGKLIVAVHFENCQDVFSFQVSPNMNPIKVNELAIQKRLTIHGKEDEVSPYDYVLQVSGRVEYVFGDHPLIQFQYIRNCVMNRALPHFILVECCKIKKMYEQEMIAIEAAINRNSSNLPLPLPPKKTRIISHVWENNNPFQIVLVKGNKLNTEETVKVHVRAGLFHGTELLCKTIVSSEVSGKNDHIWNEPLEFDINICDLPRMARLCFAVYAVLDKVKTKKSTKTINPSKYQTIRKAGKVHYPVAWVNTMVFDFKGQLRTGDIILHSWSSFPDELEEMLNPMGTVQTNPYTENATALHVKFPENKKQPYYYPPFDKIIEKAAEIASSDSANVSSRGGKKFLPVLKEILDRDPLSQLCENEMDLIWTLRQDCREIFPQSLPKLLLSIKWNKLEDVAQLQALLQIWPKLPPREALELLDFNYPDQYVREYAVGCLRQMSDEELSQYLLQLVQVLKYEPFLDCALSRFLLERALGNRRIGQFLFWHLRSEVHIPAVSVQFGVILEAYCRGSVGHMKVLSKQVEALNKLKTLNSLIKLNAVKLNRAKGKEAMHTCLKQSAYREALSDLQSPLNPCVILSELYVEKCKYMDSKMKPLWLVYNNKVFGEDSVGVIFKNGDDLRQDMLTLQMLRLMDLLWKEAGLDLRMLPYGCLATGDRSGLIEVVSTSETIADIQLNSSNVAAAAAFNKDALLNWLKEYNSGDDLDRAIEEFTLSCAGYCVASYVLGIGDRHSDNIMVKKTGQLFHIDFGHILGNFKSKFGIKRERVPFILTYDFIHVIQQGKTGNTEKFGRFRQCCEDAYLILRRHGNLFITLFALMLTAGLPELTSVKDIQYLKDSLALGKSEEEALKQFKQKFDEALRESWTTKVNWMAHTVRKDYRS

| Compound | IC50 (PIK3CD (Human) [1]) | IC50 (PIK3CA (human)) | IC50 (PIK3CB (Human)) | IC50 (PIK3CG (human)) | IC50 (PIK3CD (Human) [2]) |
| --- | --- | --- | --- | --- | --- |
| Cc1ccccc1-c1nc2c(C)cccc2cc1[C@@H](C)Oc1ncnc2[nH]ccc12 | 2.6 µM | > 125 µM | 7.6 µM | 22 µM | – |
| Cc1ccccc1-c1nc2c(C)cccc2cc1[C@H](C)Oc1ncnc2[nH]ccc12 | 0.0071 µM | 6.5 µM | 1 µM | 0.093 µM | 0.0043 µM |
| Cc1ccccc1-c1nc2c(C)cccc2cc1CNc1ncnc2[nH]cnc12 | 0.041 µM | 37 µM | 2.1 µM | 0.29 µM | 0.051 µM |
| C[C@H](Nc1ncnc2[nH]cnc12)c1cc2cccc(F)c2nc1-c1ccccn1 | 0.029 µM | 125 µM | 2.2 µM | 1.7 µM | 0.014 µM |
| C[C@H](Nc1ncnc2[nH]cnc12)c1cc2cccc(C#N)c2nc1-c1ccccn1 | 0.043 µM | 62 µM | 5.2 µM | 1.1 µM | 0.047 µM |
| C[C@H](Nc1ncnc2[nH]cnc12)c1cc2ccc(F)cc2nc1-c1cccc(F)c1 | 0.0066 µM | 14 µM | 1.3 µM | 0.12 µM | 0.013 µM |
| Cc1nnc2ccc(Cl)cc2c1N1CC(C)(C)c2ccc(N3CCOCC3)cc21 | 19 µM | – | – | – | – |
| C[C@H](Nc1ncnc2[nH]cnc12)c1nc2cccc(Cl)c2nc1-c1ccccn1 | 0.0052 µM | 46 µM | 1.09 µM | 0.44 µM | 0.012 µM |
| C[C@H](Nc1ncnc2[nH]cnc12)c1cc2cccc(Cl)c2nc1-c1ccccn1 | 0.066 µM | 14 µM | 0.67 µM | 0.15 µM | 0.0032 µM |
| C[C@H](Nc1ncnc2[nH]cnc12)c1cc2cccc(F)c2nc1-c1cc(F)ccc1F | 0.018 µM | 125 µM | 1.9 µM | 0.56 µM | 0.013 µM |
| C[C@H](Nc1ncnc2[nH]cnc12)c1nc2c(Cl)cccc2nc1-c1ccccn1 | 0.059 µM | 125 µM | 3.6 µM | 6.6 µM | 0.021 µM |
| C[C@H](Nc1ncnc2[nH]cnc12)c1cc2cccc(Cl)c2nc1-c1ccccc1F | 0.0032 µM | 26 µM | 0.42 µM | 0.067 µM | 0.0036 µM |
| C[C@H](Nc1ncnc2[nH]cnc12)c1cc2c(F)cc(F)cc2nc1-c1ccccn1 | 0.016 µM | 6.9 µM | 1.9 µM | 0.61 µM | – |
| Cc1ccccc1-c1nc2c(C)cccc2cc1COc1ncnc2[nH]ccc12 | 0.038 µM | > 125 µM | 3.3 µM | 0.71 µM | 0.27 µM |
| C[C@H](Nc1ncnc2[nH]cnc12)c1cc2cccc(F)c2nc1-c1cccnc1 | 0.016 µM | 81 µM | 2.9 µM | 0.83 µM | 0.015 µM |
| Cc1ccccc1-c1nc2c(C)cccc2cc1CCc1ncnc2[nH]cnc12 | 3.6 µM | > 125 µM | > 12 µM | 18 µM | – |

| Compound | IC50 (PIK3CD (Human) [1]) | IC50 (PIK3CA (human)) | IC50 (PIK3CB (Human)) | IC50 (PIK3CG (human)) | IC50 (PIK3CD (Human) [2]) |
| --- | --- | --- | --- | --- | --- |
| Fc1cccc(-c2nc3c(Cl)cccc3cc2CNc2ncnc3[nH]cnc23)c1 | 0.082 µM | 52 µM | 3.7 µM | 0.84 µM | 0.028 µM |
| C[C@H](Nc1ncnc2[nH]cnc12)c1cc2cccc(Cl)c2nc1-c1cccc(S(C)(=O)=O)c1 | 0.015 µM | 47 µM | 1.1 µM | 0.77 µM | 0.056 µM |
| C[C@H](Nc1ncnc2[nH]cnc12)c1nc2ccc(F)cc2nc1-c1ccccn1 | 0.024 µM | 22 µM | 4.1 µM | 0.89 µM | 0.018 µM |
| Clc1ccccc1-c1nc2c(Cl)cccc2cc1CNc1ncnc2[nH]cnc12 | 0.039 µM | 46 µM | 3.9 µM | 0.45 µM | 0.025 µM |
| Cc1ncc(F)cc1-c1nc2c(Cl)cccc2cc1[C@H](C)Nc1ncnc2[nH]cnc12 | 0.018 µM | – | 1.8 µM | 0.23 µM | 0.017 µM |
| Cc1ncccc1-c1nc2c(Cl)cccc2cc1[C@H](C)Nc1ncnc2[nH]cnc12 | 0.018 µM | 13 µM | 1.26 µM | 0.12 µM | 0.0043 µM |
| C[C@H](Nc1ncnc2[nH]cnc12)c1cc2cccc(F)c2nc1-c1cccc(F)c1 | 0.01 µM | – | 1.1 µM | 0.25 µM | 0.0052 µM |
| C[C@H](Nc1ncnc2[nH]cnc12)c1nc2cccc(Cl)c2nc1-c1cccc(F)c1 | 0.01 µM | 8.1 µM | 1.4 µM | 0.16 µM | 0.014 µM |
| C[C@H](Nc1ncnc2[nH]cnc12)c1cc2cccc(Cl)c2nc1-c1cccc(F)c1 | 0.012 µM | 5.7 µM | 0.37 µM | 0.038 µM | 0.0024 µM |
| C[C@H](Nc1ncnc2[nH]cnc12)c1cc2ccc(F)cc2nc1-c1ccccc1S(C)(=O)=O | 0.011 µM | 20 µM | 2.1 µM | 0.34 µM | 0.0068 µM |
| C[C@H](Nc1ncnc2[nH]cnc12)c1cc2cccc(F)c2nc1-c1cc(F)cc(F)c1 | 0.012 µM | 9 µM | 4.5 µM | 0.36 µM | 0.011 µM |
| COc1ccccc1-c1nc2c(C)cccc2cc1COc1ncnc2[nH]cnc12 | 0.044 µM | > 125 µM | 2.9 µM | 2.6 µM | 0.088 µM |
| COc1ccccc1-c1nc2c(C)cccc2cc1CSc1ncnc2[nH]cnc12 | 0.24 µM | 53 µM | 49 µM | 8.6 µM | 0.84 µM |
| Cc1ccccc1-n1c(CNc2nc(N)nc3[nH]cnc23)nc2cccc(C)c2c1=O | 0.025 µM | 10 µM | 1.8 µM | 0.14 µM | – |
| C[C@H](Nc1ncnc2[nH]cnc12)c1cc2cccc(Cl)c2nc1-c1ccccc1Cl | 0.008 µM | 36 µM | 1.5 µM | 0.14 µM | 0.0036 µM |
| Cc1ccccc1-c1nc2c(C)cccc2cc1COc1ncnc2[nH]cnc12 | 0.017 µM | 42 µM | 1.7 µM | 0.58 µM | 0.047 µM |
